Here are results for eleven compounds from patent US20260070945A1, “MACROCYCLIC IMMUNOMODULATORS” (Bristol-Myers Squibb Company, priority 2022, published 2026).

Where a SMILES comes first, the peptide text is derived from it. Bridges are numbered along the chain shown (N, C = ends). [ ]: non-standard residue; d: D form. The star is where a group is joined. ξ: configuration not given here. Phe(4-CH2CH2COOH) = N[C@@H](Cc1ccc(CCC(=O)O)cc1)C(=O)O; Phe(3-CF3) = N[C@@H](Cc1cccc(C(F)(F)F)c1)C(=O)O; Phe(4-CF3) = N[C@@H](Cc1ccc(C(F)(F)F)cc1)C(=O)O; Phe(4-COOH) = N[C@@H](Cc1ccc(C(=O)O)cc1)C(=O)O; Bip = N[C@@H](Cc1ccc(-c2ccccc2)cc1)C(=O)O; Phe(3-F) = N[C@@H](Cc1cccc(F)c1)C(=O)O; Phe(3-Me) = Cc1cccc(C[C@H](N)C(=O)O)c1; Val(3-OH) = CC(C)(O)[C@H](N)C(=O)O; Cha = N[C@@H](CC1CCCCC1)C(=O)O; Cit = NC(=O)NCCC[C@H](N)C(=O)O; Ile(3ξ) = CCC(C)[C@H](N)C(=O)O; Carboxymethyl = O=C(O)C*; NMeA = CN[C@@H](C)C(=O)O; Aun = NCCCCCCCCCCC(=O)O; Dab = NCC[C@H](N)C(=O)O; Nva = CCC[C@H](N)C(=O)O; AEEA = NCCOCCOCC(=O)O

T1 sequence (Q15116 25-288): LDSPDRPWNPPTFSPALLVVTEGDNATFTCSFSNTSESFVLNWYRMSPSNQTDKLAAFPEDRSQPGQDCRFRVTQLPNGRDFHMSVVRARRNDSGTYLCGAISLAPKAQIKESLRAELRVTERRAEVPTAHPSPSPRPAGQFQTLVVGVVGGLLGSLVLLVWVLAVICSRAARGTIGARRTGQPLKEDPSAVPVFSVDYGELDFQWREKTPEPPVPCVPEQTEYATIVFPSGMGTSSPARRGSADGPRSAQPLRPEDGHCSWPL

This assay has as its target T1, PD-1/PD-L1 interaction (PE-labeled human PD-L1-Ig binding to Jurkat cell line over-expressing human PD-1) (Homo sapiens, UniProt Q15116).
T1 construct: expressed in transfected cells; host or cells: Jurkat
As to the kind of experiment: Jurkat-PD-1 Cell Binding High-Content Screening Assay (CBA). As to conditions: PE-labeled PD-L1-Ig 20 nM final, Jurkat-hPD-1 cells; read-out: Jurkat HPD1 PDL1 IC50. Summed up: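 Jurkat-hPD-1 cells (8×10^3/well) in DMEM with 10% fetal calf serum were preincubated with compound for 2 h at 37 °C. PE-labeled PD-L1-Ig was then added at 20 nM final for 1 h. Cells were fixed in paraformaldehyde with Hoechst 33342, washed and imaged by high-content imaging.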
The term IC50 denotes the point on the concentration scale where inhibition reaches its midpoint. In the case of `CCC(C)[C@@H]1NC(=O)[C@H](Cc2ccc(-c3ccccc3)cc2)NC(=O)[C@H](C(C)C)NC(=O)[C@H](Cc2c[nH]c3ccccc23)NC(=O)[C@H](CC(=O)O)NC(=O)[C@H](Cc2ccc(OCC(=O)O)cc2)NC(=O)[C@H](Cc2ccc(OCC(=O)O)cc2)NC(=O)CSC[C@@H](C(=O)N[C@@H](CCN)C(=O)NCCOCCOCC(=O)NCCCCCCCCCCC(=O)O)NC(=O)[C@H](CCCNC(N)=O)NC(=O)[C@H](C(C)(C)O)NC(=O)[C@H](CC2CCCCC2)NC(=O)[C@H](Cc2cnc[nH]2)NC(=O)[C@@H](CC(C)C)NC(=O)[C@H](C)N(C)C1=O` (stereo partly drawn) [Example 2587] ({CH2CO}-Y(Carboxymethyl)Y(Carboxymethyl)DWV[Bip][Ile(3ξ)][NMeA][dL]H[Cha][Val(3-OH)][Cit]C[Dab][AEEA][Aun]-OH; thioether N-14), the 50% inhibitory concentration (IC50) was found to be 13.5 nM. `CCC(C)[C@@H]1NC(=O)[C@H](Cc2ccc(-c3ccccc3)cc2)NC(=O)[C@H](C(C)C)NC(=O)[C@H](Cc2c[nH]c3ccccc23)NC(=O)[C@H](CC(=O)O)NC(=O)[C@H](Cc2ccc(OCC(=O)O)cc2)NC(=O)[C@H](Cc2ccc(OCC(=O)O)cc2)NC(=O)CSC[C@@H](C(=O)N[C@@H](CCN)C(=O)NCCOCCOCC(=O)NCCCCCCCCCCC(=O)O)NC(=O)[C@H](CCCCNC(C)=O)NC(=O)[C@H](C(C)(C)O)NC(=O)[C@H](CC2CCCCC2)NC(=O)[C@H](Cc2cnc[nH]2)NC(=O)[C@@H](CC(C)C)NC(=O)[C@H](C)N(C)C1=O` (stereo partly drawn) [Example 2588] ({CH2CO}-Y(Carboxymethyl)Y(Carboxymethyl)DWV[Bip][Ile(3ξ)][NMeA][dL]H[Cha][Val(3-OH)]K(Ac)C[Dab][AEEA][Aun]-OH; thioether N-14): the concentration for half-maximal inhibition (IC50) was found to be 4.2 nM. `CCC[C@@H]1NC(=O)[C@H](C(C)(C)O)NC(=O)[C@H](CC2CCCCC2)NC(=O)[C@H](Cc2cnc[nH]2)NC(=O)[C@@H](CC(C)C)NC(=O)[C@H](C)N(C)C(=O)[C@H](C(C)CC)NC(=O)[C@H](Cc2ccc(-c3ccccc3)cc2)NC(=O)[C@H](C(C)C)NC(=O)[C@H](Cc2c[nH]c3ccccc23)NC(=O)[C@H](CC(=O)O)NC(=O)[C@H](Cc2ccc(OCC(=O)O)cc2)NC(=O)[C@H](Cc2ccc(OCC(=O)O)cc2)NC(=O)CSC[C@@H](C(=O)N[C@@H](CCN)C(=O)NCCOCCOCC(=O)NCCCCCCCCCCC(=O)O)NC1=O` (stereo partly drawn) [Example 2589] ({CH2CO}-Y(Carboxymethyl)Y(Carboxymethyl)DWV[Bip][Ile(3ξ)][NMeA][dL]H[Cha][Val(3-OH)][Nva]C[Dab][AEEA][Aun]-OH; thioether N-14): the IC50 is 35.6 nM. As for `CCC(C)[C@@H]1NC(=O)[C@H](Cc2ccc(-c3ccccc3)cc2)NC(=O)[C@H](Cc2ccc(C(F)(F)F)cc2)NC(=O)[C@H](Cc2c[nH]c3ccccc23)NC(=O)[C@H](CC(=O)O)NC(=O)[C@H](Cc2ccc(OCC(=O)O)cc2)NC(=O)[C@H](Cc2cnc[nH]2)NC(=O)CSC[C@@H](C(=O)N[C@@H](CCN)C(=O)NCCOCCOCC(=O)NCCCCCCCCCCC(=O)O)NC(=O)[C@H](CCC(=O)O)NC(=O)[C@H](C(C)(C)O)NC(=O)[C@H](CC2CCCCC2)NC(=O)[C@H](CCN)NC(=O)[C@@H](CC(C)C)NC(=O)[C@H](C)N(C)C1=O` (stereo partly drawn) [Example 2590] ({CH2CO}-HY(Carboxymethyl)DW[Phe(4-CF3)][Bip][Ile(3ξ)][NMeA][dL][Dab][Cha][Val(3-OH)]EC[Dab][AEEA][Aun]-OH; thioether N-14), the concentration for half-maximal inhibition (IC50) came out at 185 nM. In the case of `CCC(C)[C@@H]1NC(=O)[C@H](Cc2ccc(-c3ccccc3)cc2)NC(=O)[C@H](C(C)C)NC(=O)[C@H](Cc2c[nH]c3ccccc23)NC(=O)[C@H](CC(=O)O)NC(=O)[C@H](Cc2ccc(OCC(=O)O)cc2)NC(=O)[C@H](Cc2cnc[nH]2)NC(=O)CSC[C@@H](C(=O)N[C@@H](CCN)C(=O)NCCOCCOCC(=O)NCCCCCCCCCCC(=O)O)NC(=O)[C@H](CCC(=O)O)NC(=O)[C@H](C(C)(C)O)NC(=O)[C@H](CC2CCCCC2)NC(=O)[C@H](CCN)NC(=O)[C@@H](CC(C)C)NC(=O)[C@H](C)N(C)C1=O` (stereo partly drawn) [Example 2591] ({CH2CO}-HY(Carboxymethyl)DWV[Bip][Ile(3ξ)][NMeA][dL][Dab][Cha][Val(3-OH)]EC[Dab][AEEA][Aun]-OH; thioether N-14), the IC50 is 3.1 nM. The value for `CCC(C)[C@@H]1NC(=O)[C@H](Cc2ccc(-c3ccccc3)cc2)NC(=O)[C@H](Cc2ccc(C(F)(F)F)cc2)NC(=O)[C@H](Cc2cccc(F)c2)NC(=O)[C@H](CC(=O)O)NC(=O)[C@H](Cc2ccc(OCC(=O)O)cc2)NC(=O)[C@H](Cc2cnc[nH]2)NC(=O)CSC[C@@H](C(=O)N[C@@H](CCN)C(=O)NCCOCCOCC(=O)NCCCCCCCCCCC(=O)O)NC(=O)[C@H](CCC(=O)O)NC(=O)[C@H](C(C)C)NC(=O)[C@H](CC2CCCCC2)NC(=O)[C@H](CCN)NC(=O)[C@@H](CC(C)C)NC(=O)[C@H](C)N(C)C1=O` (stereo partly drawn) [Example 2592] ({CH2CO}-HY(Carboxymethyl)D[Phe(3-F)][Phe(4-CF3)][Bip][Ile(3ξ)][NMeA][dL][Dab][Cha]VEC[Dab][AEEA][Aun]-OH; thioether N-14) was 89.6 nM; that for `CC(=O)NCCCC[C@@H]1NC(=O)[C@H](C(C)(C)O)NC(=O)[C@H](CC2CCCCC2)NC(=O)[C@H](CCN)NC(=O)[C@@H](CC(C)C)NC(=O)[C@H](C)N(C)C(=O)[C@H](CCC(N)=O)NC(=O)[C@H](Cc2ccc(-c3ccccc3)cc2)NC(=O)[C@H](Cc2ccc(C(F)(F)F)cc2)NC(=O)[C@H](Cc2cccc(C)c2)NC(=O)[C@H](CC(=O)O)NC(=O)[C@H](Cc2ccc(OCC(=O)O)cc2)NC(=O)[C@H](Cc2ccc(OCC(=O)O)cc2)NC(=O)CSC[C@@H](C(=O)N[C@@H](CCN)C(=O)NCCOCCOCC(=O)NCCCCCCCCCCC(=O)O)NC1=O` [Example 2593] ({CH2CO}-Y(Carboxymethyl)Y(Carboxymethyl)D[Phe(3-Me)][Phe(4-CF3)][Bip]Q[NMeA][dL][Dab][Cha][Val(3-OH)]K(Ac)C[Dab][AEEA][Aun]-OH; thioether N-14) was 9 nM. In the case of `CC(=O)NCCCC[C@@H]1NC(=O)[C@H](C(C)(C)O)NC(=O)[C@H](CC2CCCCC2)NC(=O)[C@H](CCN)NC(=O)[C@@H](CC(C)C)NC(=O)[C@H](C)N(C)C(=O)[C@H](Cc2ccc(C(F)(F)F)cc2)NC(=O)[C@H](Cc2ccc(-c3ccccc3)cc2)NC(=O)[C@H](Cc2ccc(C(=O)O)cc2)NC(=O)[C@H](Cc2cccc(C)c2)NC(=O)[C@H](CC(=O)O)NC(=O)[C@H](Cc2ccc(OCC(=O)O)cc2)NC(=O)[C@H](Cc2ccc(OCC(=O)O)cc2)NC(=O)CSC[C@@H](C(=O)N[C@@H](CCN)C(=O)NCCOCCOCC(=O)NCCCCCCCCCCC(=O)O)NC1=O` [Example 2594] ({CH2CO}-Y(Carboxymethyl)Y(Carboxymethyl)D[Phe(3-Me)][Phe(4-COOH)][Bip][Phe(4-CF3)][NMeA][dL][Dab][Cha][Val(3-OH)]K(Ac)C[Dab][AEEA][Aun]-OH; thioether N-14), the IC50 was 5.7 nM. The value for `CC(=O)NCCCC[C@@H]1NC(=O)[C@H](C(C)(C)O)NC(=O)[C@H](CC2CCCCC2)NC(=O)[C@H](CCN)NC(=O)[C@@H](CC(C)C)NC(=O)[C@H](C)N(C)C(=O)[C@H](CCC(N)=O)NC(=O)[C@H](Cc2ccc(-c3ccccc3)cc2)NC(=O)[C@H](Cc2ccc(C(=O)O)cc2)NC(=O)[C@H](Cc2cccc(C)c2)NC(=O)[C@H](CC(=O)O)NC(=O)[C@H](Cc2ccc(C(F)(F)F)cc2)NC(=O)[C@H](Cc2ccc(OCC(=O)O)cc2)NC(=O)CSC[C@@H](C(=O)N[C@@H](CCN)C(=O)NCCOCCOCC(=O)NCCCCCCCCCCC(=O)O)NC1=O` [Example 2595] ({CH2CO}-Y(Carboxymethyl)[Phe(4-CF3)]D[Phe(3-Me)][Phe(4-COOH)][Bip]Q[NMeA][dL][Dab][Cha][Val(3-OH)]K(Ac)C[Dab][AEEA][Aun]-OH; thioether N-14) was 11.7 nM. Take `CC(=O)NCCCC[C@@H]1NC(=O)[C@H](C(C)(C)O)NC(=O)[C@H](CC2CCCCC2)NC(=O)[C@H](CCN)NC(=O)[C@@H](CC(C)C)NC(=O)[C@H](C)N(C)C(=O)[C@H](CCC(N)=O)NC(=O)[C@H](Cc2ccc(-c3ccccc3)cc2)NC(=O)[C@H](Cc2ccc(C(=O)O)cc2)NC(=O)[C@H](Cc2cccc(C)c2)NC(=O)[C@H](CC(=O)O)NC(=O)[C@H](Cc2ccc(OCC(=O)O)cc2)NC(=O)[C@H](Cc2ccc(C(F)(F)F)cc2)NC(=O)CSC[C@@H](C(=O)N[C@@H](CCN)C(=O)NCCOCCOCC(=O)NCCCCCCCCCCC(=O)O)NC1=O` [Example 2596] ({CH2CO}-[Phe(4-CF3)]Y(Carboxymethyl)D[Phe(3-Me)][Phe(4-COOH)][Bip]Q[NMeA][dL][Dab][Cha][Val(3-OH)]K(Ac)C[Dab][AEEA][Aun]-OH; thioether N-14): the IC50 was 2.7 nM. For the compound `CC(=O)NCCCC[C@@H]1NC(=O)[C@H](C(C)(C)O)NC(=O)[C@H](CC2CCCCC2)NC(=O)[C@H](CCN)NC(=O)[C@@H](CC(C)C)NC(=O)[C@H](C)N(C)C(=O)[C@H](CCC(N)=O)NC(=O)[C@H](Cc2ccc(-c3ccccc3)cc2)NC(=O)[C@H](Cc2ccc(CCC(=O)O)cc2)NC(=O)[C@H](Cc2cccc(C(F)(F)F)c2)NC(=O)[C@H](CC(=O)O)NC(=O)[C@H](Cc2ccc(OCC(=O)O)cc2)NC(=O)[C@H](Cc2ccc(OCC(=O)O)cc2)NC(=O)CSC[C@@H](C(=O)N[C@@H](CCN)C(=O)NCCOCCOCC(=O)NCCCCCCCCCCC(=O)O)NC1=O` [Example 2597] ({CH2CO}-Y(Carboxymethyl)Y(Carboxymethyl)D[Phe(3-CF3)][Phe(4-CH2CH2COOH)][Bip]Q[NMeA][dL][Dab][Cha][Val(3-OH)]K(Ac)C[Dab][AEEA][Aun]-OH; thioether N-14), the IC50 was 3.3 nM.
